Measured values: the NIST ThermoML archive (doi:10.1016/j.jct.2006.04.007)
Several values for one entry are separate records, joined by “and”; a condition that tells them apart may be missing. Equal values may be shown once. Numbers after ± are expanded uncertainties.

Assay: mn = molality of the nth substance listed, in mol/kg
Conditions: 350 kPa, Liquid; for apparent molar heat capacity: Extra sensitive DSC

CC(=O)N[C@@H](C=O)[C@@H](O)[C@H](O)[C@H](O)CO [N-acetyl-D-glucosamine] + O
Conditions	apparent molar heat capacity	mass density
318.15 K, m1 = 0.1999	–	1004.1 ± 1 kg/m3
318.15 K, m1 = 0.3018	–	1010.81 ± 1.1 kg/m3
318.15 K, m1 = 0.5001	–	1023.43 ± 1.3 kg/m3
318.15 K, m1 = 0.7003	–	1035.3 ± 1.4 kg/m3
318.15 K, m1 = 0.958	–	1051.87 ± 1.6 kg/m3
323.15 K, m1 = 0.0096	516 ± 100 J/K/mol	–
323.15 K, m1 = 0.0207	501 ± 46 J/K/mol	–
323.15 K, m1 = 0.03	483 ± 32 J/K/mol and 488 ± 32 J/K/mol	–
323.15 K, m1 = 0.07	493.4 ± 14 J/K/mol	–
323.15 K, m1 = 0.1502	483.4 ± 7.6 J/K/mol	–
323.15 K, m1 = 0.1999	495.3 ± 6.2 J/K/mol	–
323.15 K, m1 = 0.3018	498.2 ± 4.8 J/K/mol	–
323.15 K, m1 = 0.5001	502.3 ± 3.9 J/K/mol	–
323.15 K, m1 = 0.7003	503 ± 3.5 J/K/mol	–
323.15 K, m1 = 0.958	484.1 ± 3.3 J/K/mol	–
328.15 K, m1 = 0.0096	524 ± 99 J/K/mol	–
328.15 K, m1 = 0.01	–	986.41 ± 1.1 kg/m3
328.15 K, m1 = 0.02	–	987.4 ± 1.1 kg/m3
328.15 K, m1 = 0.0207	509 ± 46 J/K/mol	–
328.15 K, m1 = 0.03	490 ± 32 J/K/mol and 497 ± 32 J/K/mol	987.95 ± 1.1 kg/m3 and 987.87 ± 1.1 kg/m3
328.15 K, m1 = 0.07	501.3 ± 14 J/K/mol	990.79 ± 1.1 kg/m3
328.15 K, m1 = 0.1502	492.7 ± 7.5 J/K/mol	997.12 ± 1 kg/m3
328.15 K, m1 = 0.1999	503.9 ± 6.1 J/K/mol	999.48 ± 0.97 kg/m3
328.15 K, m1 = 0.3018	506.8 ± 4.8 J/K/mol	1006.12 ± 1.1 kg/m3
328.15 K, m1 = 0.5001	510.8 ± 3.8 J/K/mol	1018.64 ± 1.2 kg/m3
328.15 K, m1 = 0.7003	511.5 ± 3.4 J/K/mol	1030.41 ± 1.4 kg/m3
328.15 K, m1 = 0.958	492.8 ± 3.2 J/K/mol	1046.86 ± 1.6 kg/m3
333.15 K, m1 = 0.0096	532 ± 98 J/K/mol	–
333.15 K, m1 = 0.0207	517 ± 46 J/K/mol	–
333.15 K, m1 = 0.03	498 ± 32 J/K/mol and 506 ± 32 J/K/mol	–
333.15 K, m1 = 0.07	509.2 ± 14 J/K/mol	–
333.15 K, m1 = 0.1502	501.5 ± 7.4 J/K/mol	–
333.15 K, m1 = 0.1999	512.1 ± 6.1 J/K/mol	–
333.15 K, m1 = 0.3018	514.9 ± 4.7 J/K/mol	–
333.15 K, m1 = 0.5001	518.8 ± 3.8 J/K/mol	–
333.15 K, m1 = 0.7003	519.6 ± 3.4 J/K/mol	–
333.15 K, m1 = 0.958	501.1 ± 3.2 J/K/mol	–
338.15 K, m1 = 0.0096	540 ± 97 J/K/mol	–
338.15 K, m1 = 0.0207	524 ± 46 J/K/mol	–
338.15 K, m1 = 0.03	505 ± 32 J/K/mol and 514 ± 32 J/K/mol	–
338.15 K, m1 = 0.07	517 ± 14 J/K/mol	–
338.15 K, m1 = 0.1502	510.1 ± 7.4 J/K/mol	–
338.15 K, m1 = 0.1999	520 ± 6 J/K/mol	–
338.15 K, m1 = 0.3018	522.8 ± 4.6 J/K/mol	–
338.15 K, m1 = 0.5001	526.6 ± 3.7 J/K/mol	–
338.15 K, m1 = 0.7003	527.5 ± 3.3 J/K/mol	–
338.15 K, m1 = 0.958	509.1 ± 3.2 J/K/mol	–
343.15 K, m1 = 0.0096	547 ± 97 J/K/mol	–
343.15 K, m1 = 0.0207	532 ± 45 J/K/mol	–
343.15 K, m1 = 0.03	511 ± 32 J/K/mol and 523 ± 31 J/K/mol	–
343.15 K, m1 = 0.07	524.3 ± 14 J/K/mol	–
343.15 K, m1 = 0.1502	518.1 ± 7.4 J/K/mol	–
343.15 K, m1 = 0.1999	527.4 ± 6 J/K/mol	–
343.15 K, m1 = 0.3018	530.1 ± 4.7 J/K/mol	–
343.15 K, m1 = 0.5001	533.9 ± 3.7 J/K/mol	–
343.15 K, m1 = 0.7003	535 ± 3.3 J/K/mol	–
343.15 K, m1 = 0.958	516.5 ± 3.1 J/K/mol	–
348.15 K, m1 = 0.0096	554 ± 96 J/K/mol	–
348.15 K, m1 = 0.01	–	975.69 ± 1.3 kg/m3
348.15 K, m1 = 0.02	–	976.44 ± 1.3 kg/m3
348.15 K, m1 = 0.0207	538 ± 44 J/K/mol	–
348.15 K, m1 = 0.03	518 ± 31 J/K/mol and 531 ± 31 J/K/mol	977.15 ± 1.2 kg/m3 and 977.05 ± 1.2 kg/m3
348.15 K, m1 = 0.07	531.6 ± 14 J/K/mol	979.84 ± 1.2 kg/m3
348.15 K, m1 = 0.1502	525.9 ± 7.3 J/K/mol	986.13 ± 1.1 kg/m3
348.15 K, m1 = 0.1999	534.7 ± 5.9 J/K/mol	988.48 ± 1.1 kg/m3
348.15 K, m1 = 0.3018	537.2 ± 4.6 J/K/mol	995.03 ± 1 kg/m3
348.15 K, m1 = 0.5001	540.8 ± 3.7 J/K/mol	1007.4 ± 1.1 kg/m3
348.15 K, m1 = 0.7003	542.3 ± 3.2 J/K/mol	1019.03 ± 1.2 kg/m3
348.15 K, m1 = 0.958	523.5 ± 3.1 J/K/mol	1035.29 ± 1.4 kg/m3
353.15 K, m1 = 0.0096	561 ± 95 J/K/mol	–
353.15 K, m1 = 0.0207	545 ± 44 J/K/mol	–
353.15 K, m1 = 0.03	524 ± 31 J/K/mol and 539 ± 31 J/K/mol	–
353.15 K, m1 = 0.07	538.7 ± 14 J/K/mol	–
353.15 K, m1 = 0.1502	533.4 ± 7.3 J/K/mol	–
353.15 K, m1 = 0.1999	541.6 ± 5.9 J/K/mol	–
353.15 K, m1 = 0.3018	544.1 ± 4.5 J/K/mol	–
353.15 K, m1 = 0.5001	547.6 ± 3.7 J/K/mol	–
353.15 K, m1 = 0.7003	549.6 ± 3.2 J/K/mol	–
353.15 K, m1 = 0.958	530.3 ± 3 J/K/mol	–
358.15 K, m1 = 0.0096	568 ± 94 J/K/mol	–
358.15 K, m1 = 0.01	–	969.57 ± 1.4 kg/m3
358.15 K, m1 = 0.02	–	969.97 ± 1.4 kg/m3
358.15 K, m1 = 0.0207	552 ± 44 J/K/mol	–
358.15 K, m1 = 0.03	529 ± 31 J/K/mol and 547 ± 31 J/K/mol	970.91 ± 1.3 kg/m3 and 970.89 ± 1.3 kg/m3
358.15 K, m1 = 0.07	545.8 ± 14 J/K/mol	973.66 ± 1.3 kg/m3
358.15 K, m1 = 0.1502	540.9 ± 7.2 J/K/mol	979.94 ± 1.2 kg/m3
358.15 K, m1 = 0.1999	548.3 ± 5.8 J/K/mol	982.31 ± 1.2 kg/m3
358.15 K, m1 = 0.3018	550.7 ± 4.6 J/K/mol	988.83 ± 1.1 kg/m3
358.15 K, m1 = 0.5001	554.1 ± 3.6 J/K/mol	1000.87 ± 0.99 kg/m3
358.15 K, m1 = 0.7003	556.9 ± 3.2 J/K/mol	1012.6 ± 1.1 kg/m3
358.15 K, m1 = 0.958	536.9 ± 3.1 J/K/mol	1028.69 ± 1.3 kg/m3
363.15 K, m1 = 0.0096	574 ± 94 J/K/mol	–
363.15 K, m1 = 0.0207	558 ± 44 J/K/mol	–
363.15 K, m1 = 0.03	533 ± 31 J/K/mol and 553 ± 31 J/K/mol	–
363.15 K, m1 = 0.07	551.5 ± 14 J/K/mol	–
363.15 K, m1 = 0.1502	547.3 ± 7.1 J/K/mol	–
363.15 K, m1 = 0.1999	554.3 ± 5.8 J/K/mol	–
363.15 K, m1 = 0.3018	556.6 ± 4.5 J/K/mol	–
363.15 K, m1 = 0.5001	559.9 ± 3.6 J/K/mol	–
363.15 K, m1 = 0.7003	564.4 ± 3.2 J/K/mol	–
363.15 K, m1 = 0.958	542.9 ± 3 J/K/mol	–
368.15 K, m1 = 0.01	–	963.46 ± 1.4 kg/m3
368.15 K, m1 = 0.02	–	963.16 ± 1.4 kg/m3
368.15 K, m1 = 0.03	–	964.01 ± 1.4 kg/m3 and 964.02 ± 1.4 kg/m3
368.15 K, m1 = 0.07	–	966.84 ± 1.4 kg/m3
368.15 K, m1 = 0.1502	–	973.05 ± 1.3 kg/m3
368.15 K, m1 = 0.1999	–	975.42 ± 1.3 kg/m3
368.15 K, m1 = 0.3018	–	981.89 ± 1.2 kg/m3
368.15 K, m1 = 0.5001	–	994.17 ± 1.1 kg/m3
368.15 K, m1 = 0.7003	–	1005.68 ± 1.1 kg/m3
368.15 K, m1 = 0.958	–	1021.82 ± 1.3 kg/m3
